Values after ≈ are worked out from the molar mass of the structure shown. Values joined by “and” are separate entries in the source; they are usually repeats but may differ in a detail not shown here. Equal entries are not always repeated. Where two headings read alike, the source gives them in different places.
What was measured:
[1] = tested on: MCF-7 cells; test: Cytotoxicity to MCF-7 cells with or without 25 μM dicoumarol (sulforhodamine B assay); format: cell-based, human; conditions: for IC50: Homo sapiens; for Fold Protection of MCF7 cells w/ 25 μM dicoumarol: Table 1
Summary of the method: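 MCF-7 cells, which express high NQO1, were exposed to compounds for 2 hours with or without 25 μM dicoumarol. They were then washed and kept 72 hours in fresh media. Cell death was measured by sulforhodamine B assay.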

[2] = biological target: NQO1 (Homo sapiens, UniProt P15559); test: NQO1 enzymatic measurements in vitro; format: biochemical; conditions: 1 μM substrate
Procedure: As further evidence that the activity of these DNQ derivatives is dependent on their ability to be reduced by NQO1, full enzymatic measurements in vitro were performed. We found a strong correlation between catalytic efficiency of substrates in vitro and their cell culture toxicity. […] This provides strong evidence that the cytotoxicity of DNQ and its derivatives are dependent primarily upon the activity of NQO1 within the cell.

[3] = Aqueous solubility in pH 7.4 PBS by LC-MS; format: physicochemical
Summary of the method: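 Solid compound was sonicated 30 min in pH 7.4 PBS (the bath warmed to 45 °C, samples were cooled before filtration) and passed through a 0.45 μm filter. Filtrate was quantified by LC-MS with UV at 275 nm against a 1–100 μM DNQ calibration curve, which was also applied to derivatives. Strongly coloured filtrates were diluted 10-fold in PBS.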

[4] = Solubility in 20% HPβCD solution (pH modulation protocol); format: physicochemical; conditions: for solubility: pH 7.4, aqueous with cosolvent or surfactant or cyclodextrin, thermodynamic from solid, Table 4.3
Summary of the method: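 Compound slurried in 20% HPβCD in pH 7.4 PBS, dissolved by raising pH with 10 M NaOH, then brought back to pH 7.5-8.0 with 1 M HCl. Solubility compared with buffer alone.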

[5] = Solubility in organic solvents; format: physicochemical; conditions: for solubility: organic solvent or mixture, thermodynamic from solid
Procedure: The solubility of DNQ derivatives in organic solvents was determined by measuring the amount of a given solvent required to dissolve a known amount of compound. Solvent was added to the compound in 50 μL aliquots and the slurry was sonicated. […] Solubility was assessed in DMSO, dichloromethane, and 33% methanol in dichloromethane (FIGS. 9, 10, and 11, respectively).

[6] = Maximum tolerated dose in mice; conditions: mouse, ip
Source text: Because of the difficulty of repeated tail vein injections in mice, our group is using IP administration of compound.
All of these derivatives are currently being assessed for their maximum tolerated dose (MTD) in healthy mice. Compounds are formulated in HPβCD and delivered by IP injection to two mice once daily for five days.

[7] = Solubility in organic solvents; format: physicochemical; conditions: organic solvent or mixture, thermodynamic from solid; THF; Table 1
[8] = MCF7, Table 1, read-out: MCF7 IC50
[9] = MCF7, Table 4.2, no DIC, ± s.e., read-out: IC50 vs. MCF-7 cells
[10] = MCF7, classification in figure legends of FIGS. 7-11, read-out: IC50 ("active" / generally "inactive" compounds)
[11] = MCF7, read-out: IC50 vs. MCF-7 cells +25 μM DIC, Table 4.2, +25 μM DIC, ± s.e.
[12] = phosphate buffered saline, pH 7.4, aqueous buffer, thermodynamic from solid, PBS pH 7.4, Table 4.3
[13] = 20% HPβCD in pH 7.4 PBS, 20% HPβCD
[14] = 2:1 CH2Cl2:MeOH, Table 4.3, read-out: Solubility in 2:1 CH2Cl2:MeOH
[15] = CH2Cl2:MeOH 2:1, Table 1, read-out: CH2Cl2:MeOH 2:1 solubility
[16] = CH2Cl2, Table 1, read-out: CH2Cl2 solubility
[17] = DMSO, Table 1, read-out: DMSO solubility

Chain of NQO1 (P15559 whole entry): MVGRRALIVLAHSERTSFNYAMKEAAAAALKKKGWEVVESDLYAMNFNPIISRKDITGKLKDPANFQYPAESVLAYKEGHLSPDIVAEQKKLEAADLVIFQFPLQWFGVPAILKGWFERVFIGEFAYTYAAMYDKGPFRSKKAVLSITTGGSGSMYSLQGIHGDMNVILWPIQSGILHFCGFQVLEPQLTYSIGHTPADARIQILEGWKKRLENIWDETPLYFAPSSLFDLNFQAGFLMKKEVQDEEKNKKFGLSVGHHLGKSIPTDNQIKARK

Structure (SMILES): Cc1cc(=O)[nH]c2c1C(=O)c1c(C)cc(=O)n(CC(C)C)c1C2=O [Compound 87]
- IC50 [1, 8]: 0.25 µM
- IC50 [1, 9]: 0.23 ± 0.02 µM
- IC50 [1, 10]: < 0.5 µM
- IC50 [1, 11]: 1.1 ± 0.1 µM
- Fold Protection of MCF7 cells w/ 25 μM dicoumarol [1]: 6.1
- Fold protection by DIC ([1]; Table 4.2): 4.8
- NQO1 Initial Velocity @ 1 μM [2]: 1900 ± 200
- solubility at 30 min [3, 12]: 0.115 mM (≈ 37.5 µg/mL)
- solubility [4, 13]: 13 mM (≈ 4240 µg/mL)
- Solubility in CH2Cl2 ([5]; CH2Cl2, Table 4.3): 180 mM (≈ 58700 µg/mL)
- Solubility in DMSO ([5]; DMSO, Table 4.3): 110 mM (≈ 35900 µg/mL)
- solubility [5, 14]: 140 mM (≈ 45700 µg/mL)
- solubility [5, 15]: 140 mM (≈ 45700 µg/mL)
- solubility [5, 16]: 180 mM (≈ 58700 µg/mL)
- solubility [5, 17]: 110 mM (≈ 35900 µg/mL)
- MTD at 5 days ([6]; in vivo): 14 mg/kg and 44 µmol/kg
- solubility [7]: 34 mM (≈ 11100 µg/mL)

Structure (SMILES): Cc1cc(=O)[nH]c2c1C(=O)c1c(C)cc(=O)n(C)c1C2=O [DNQ, Deoxynyboquinone, reference compound]
- IC50 ([1]; MCF7, 2 h, Table 4.1, 2 h exposure, no DIC, ± s.e., read-out: IC50 vs. MCF-7 cells): 0.13 ± 0.02 µM
- IC50 [1, 8]: 0.19 µM
- IC50 [1, 9]: 0.13 ± 0.02 µM
- IC50 [1, 10]: < 0.5 µM
- IC50 ([1]; MCF7, read-out: IC50 vs. MCF-7 cells +25 μM DIC, Table 4.1, +25 μM DIC, ± s.e.): 1.7 ± 0.3 µM
- IC50 [1, 11]: 1.8 ± 0.3 µM
- Fold Protection of MCF7 cells w/ 25 μM dicoumarol [1]: 7.8
- Fold protection by DIC ([1]; Table 4.1): 14
- Fold protection by DIC ([1]; Table 4.2): 14
- NQO1 Initial Velocity @ 1 μM [2]: 1900 ± 100
- solubility at 30 min ([3]; pH 7.4 PBS): 0.1 mM (≈ 28.4 µg/mL)
- solubility at 30 min [3, 12]: 0.115 mM (≈ 32.7 µg/mL)
- solubility at 30 min ([3]; phosphate buffered saline, pH 7.4, aqueous buffer, thermodynamic from solid, pH 7.4 PBS): 0.115 mM (≈ 32.7 µg/mL)
- fold increase in solubility in HPβCD over PBS alone ([4]; 20% HPβCD): 30 fold
- solution concentration in HPβCD ([4]; 20% HPβCD in pH 7.4 PBS): 3.3 mM
- solubility [4, 13]: 3.3 mM (≈ 938 µg/mL)
- solution concentration a 40% HPβCD solution would permit ([4]; 40% HPβCD, linear extrapolation): 6.6 mM
- Solubility in CH2Cl2 ([5]; CH2Cl2, Table 4.3): 0.7 mM (≈ 199 µg/mL)
- Solubility in DMSO ([5]; DMSO, Table 4.3): 3.1 mM (≈ 881 µg/mL)
- solubility [5, 14]: 8.5 mM (≈ 2420 µg/mL)
- solubility [5, 15]: 8.5 mM (≈ 2420 µg/mL)
- solubility [5, 16]: 0.7 mM (≈ 199 µg/mL)
- solubility [5, 17]: 3.1 mM (≈ 881 µg/mL)
- MTD ([6]; in vivo): ~5 mg/kg
- MTD at 5 days ([6]; in vivo): 5 mg/kg
- MTD at 5 days [6]: 18 µmol/kg
- solubility [7]: 0.42 mM (≈ 119 µg/mL)
